Measurements: PubChem BioAssay AID248 (DTP/NCI, 2004)
“And” between values parts separate entries of the source, which are not always exact repeats. Equal values may be shown once. Toxic doses and inconclusive results are not listed. Cut-off read from the data, not from the text of the source: active = T/C of 150% or more; inactive = T/C below 125%.

Test system: L1210 leukemia ip in BDF1 mice, survival T/C
Test: NCI In Vivo Anticancer Drug Screen. Data for tumor model L1210 Leukemia (intraperitoneal) in B6D2F1 (BDF1) mice
Conditions: higher = longer survival
How it was run: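 Tumor cells were implanted, animals were treated, and survival was followed. The result divides the treated measurement by the vehicle-control measurement.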

[1] = endpoint: mean survival time, dose: 50.0 mg/kg/injection, schedule: Q01DX001 (ip), vehicle: saline
[2] = endpoint: mean survival time, dose: 100.0 mg/kg/injection, schedule: Q01DX001 (ip), vehicle: saline
[3] = endpoint: mean survival time, dose: 200.0 mg/kg/injection, schedule: Q01DX001 (ip), vehicle: saline
[4] = endpoint: mean survival time, dose: 400.0 mg/kg/injection, schedule: Q01DX001 (ip), vehicle: saline
[5] = endpoint: mean survival time, dose: 200.0 mg/kg/injection, schedule: Q04DX003 (ip), vehicle: saline with Tween-80
[6] = endpoint: mean survival time, dose: 100.0 mg/kg/injection, schedule: Q01DX009 (ip), vehicle: saline with Tween-80
[7] = endpoint: mean survival time, dose: 200.0 mg/kg/injection, schedule: Q01DX009 (ip), vehicle: saline with Tween-80
[8] = endpoint: mean survival time, dose: 100.0 mg/kg/injection, schedule: Q04DX003 (ip), vehicle: saline with Tween-80
[9] = endpoint: mean survival time, dose: 400.0 mg/kg/injection, schedule: Q04DX003 (ip), vehicle: saline with Tween-80
[10] = endpoint: mean survival time, dose: 100.0 mg/kg/injection, schedule: Q04DX002 (ip), vehicle: Klucel (hydroxypropylcellulose) (HPC)
[11] = endpoint: mean survival time, dose: 200.0 mg/kg/injection, schedule: Q04DX002 (ip), vehicle: Klucel (hydroxypropylcellulose) (HPC)
[12] = endpoint: mean survival time, dose: 400.0 mg/kg/injection, schedule: Q04DX002 (ip), vehicle: Klucel (hydroxypropylcellulose) (HPC)
[13] = endpoint: mean survival time, dose: 100.0 mg/kg/injection, schedule: Q01DX009 (ip), vehicle: Klucel (hydroxypropylcellulose) (HPC)
[14] = endpoint: mean survival time, dose: 100.0 mg/kg/injection, schedule: Q04DX003 (ip), vehicle: Klucel (hydroxypropylcellulose) (HPC)
[15] = endpoint: mean survival time, dose: 200.0 mg/kg/injection, schedule: Q01DX009 (ip), vehicle: Klucel (hydroxypropylcellulose) (HPC)
[16] = endpoint: mean survival time, dose: 200.0 mg/kg/injection, schedule: Q04DX003 (ip), vehicle: Klucel (hydroxypropylcellulose) (HPC)
[17] = endpoint: mean survival time, dose: 400.0 mg/kg/injection, schedule: Q01DX009 (ip), vehicle: Klucel (hydroxypropylcellulose) (HPC)
[18] = endpoint: mean survival time, dose: 400.0 mg/kg/injection, schedule: Q04DX003 (ip), vehicle: Klucel (hydroxypropylcellulose) (HPC)

Measured: T/C

COc1cc([C@@H]2c3cc4c(c(O)c3C[C@H]3COC(=O)[C@@H]32)OCO4)cc(OC)c1OC
inactive: endpoint: mean survival time, dose: 0.06 mg/kg/injection, schedule: Q01DX Z (ip), vehicle: saline 100 % of control | endpoint: mean survival time, dose: 0.12 mg/kg/injection, schedule: Q01DX Z (ip), vehicle: saline 103 % of control | endpoint: mean survival time, dose: 0.25 mg/kg/injection, schedule: Q01DX Z (ip), vehicle: saline 113 % of control | endpoint: mean survival time, dose: 0.5 mg/kg/injection, schedule: Q01DX Z (ip), vehicle: saline 116 % of control | endpoint: mean survival time, dose: 1.0 mg/kg/injection, schedule: Q01DX Z (ip), vehicle: saline 99 % of control | endpoint: mean survival time, dose: 1.5 mg/kg/injection, schedule: Q01DX Z (ip), vehicle: saline 115 % of control | endpoint: mean survival time, dose: 2.25 mg/kg/injection, schedule: Q01DX Z (ip), vehicle: saline 108 % of control | endpoint: mean survival time, dose: 28.0 mg/kg/injection, schedule: Q01DX001 (ip), vehicle: saline 102 % of control | endpoint: mean survival time, dose: 45.0 mg/kg/injection, schedule: Q01DX001 (ip), vehicle: saline 122 % of control | [1] 101 % of control | endpoint: mean survival time, dose: 65.0 mg/kg/injection, schedule: Q01DX001 (ip), vehicle: saline 111 % of control | [2] 112 % of control | [3] 112 % of control | [4] 117 % of control | endpoint: median survival time, dose: 0.25 mg/kg/injection, schedule: Q01DX009 (ip), vehicle: Klucel (hydroxypropylcellulose) (HPC) 100 % of control | endpoint: median survival time, dose: 0.5 mg/kg/injection, schedule: Q01DX009 (ip), vehicle: Klucel (hydroxypropylcellulose) (HPC) 100 % of control | endpoint: median survival time, dose: 1.0 mg/kg/injection, schedule: Q01DX009 (ip), vehicle: Klucel (hydroxypropylcellulose) (HPC) 100 % of control | endpoint: median survival time, dose: 2.0 mg/kg/injection, schedule: Q01DX009 (ip), vehicle: Klucel (hydroxypropylcellulose) (HPC) 100 % of control

Cc1ccc(NC(=O)c2cccc(C(=O)Nc3ccc(C)cc3C)c2)c(C)c1
inactive: endpoint: mean survival time, dose: 12.5 mg/kg/injection, schedule: Q04DX003 (ip), vehicle: saline with Tween-80 98 % of control | endpoint: mean survival time, dose: 25.0 mg/kg/injection, schedule: Q04DX003 (ip), vehicle: saline with Tween-80 98 % of control | endpoint: mean survival time, dose: 50.0 mg/kg/injection, schedule: Q04DX003 (ip), vehicle: saline with Tween-80 93 % of control | [5] 87 % of control

CC1CCCCC1O (stereo not given)
inactive: [6] 102 % of control | [7] 92 % of control

COc1ccccc1-c1cn(O)c2nc(=N)nc(N)c-2n1
inactive: endpoint: mean survival time, dose: 100.0 mg/kg/injection, schedule: Q04DX002 (ip), vehicle: saline 97 % of control | endpoint: mean survival time, dose: 200.0 mg/kg/injection, schedule: Q04DX002 (ip), vehicle: saline 94 % of control | endpoint: mean survival time, dose: 400.0 mg/kg/injection, schedule: Q04DX002 (ip), vehicle: saline 111 % of control

COC1CC(N=[N+]=[N-])C(OC(=O)c2ccccc2)C(C)O1 (stereo not given)
inactive: [6] 110 % of control | [8] 96 % of control | [7] 102 % of control | [5] 100 % of control | endpoint: mean survival time, dose: 400.0 mg/kg/injection, schedule: Q01DX009 (ip), vehicle: saline with Tween-80 98 % of control | [9] 102 % of control

CCCCCCCCCCN=C(N)N/C(N)=N/S(=O)(=O)c1ccc(OCCCC)cc1
inactive: [10] 103 % of control | [11] 95 % of control | [12] 103 % of control

Nc1c(Br)cc(Br)cc1Br
inactive: [13] 96 % of control | [14] 106 % of control | [15] 96 % of control | [16] 92 % of control | [17] 98 % of control | [18] 97 % of control

NC(=S)N1N=C(c2ccccc2)CC1=O
inactive: endpoint: mean survival time, dose: 75.0 mg/kg/injection, schedule: Q01DX001 (ip), vehicle: carboxymethylcellulose (CMC) 107 % of control | endpoint: mean survival time, dose: 150.0 mg/kg/injection, schedule: Q01DX001 (ip), vehicle: carboxymethylcellulose (CMC) 96 % of control | endpoint: mean survival time, dose: 300.0 mg/kg/injection, schedule: Q01DX001 (ip), vehicle: carboxymethylcellulose (CMC) 96 % of control

Cc1cn(-c2c(C)c(C)c(-n3c(C)ccc3C)c(C)c2C)cc1C
inactive: [13] 86 % of control | [15] 93 % of control | [17] 90 % of control

c1cc[c]([Sn]([c]2ccccc2)([c]2ccccc2)[n]2cncn2)cc1
inactive: endpoint: mean survival time, dose: 6.25 mg/kg/injection, schedule: Q04DX002 (ip), vehicle: saline with Tween-80 101 % of control | endpoint: mean survival time, dose: 12.5 mg/kg/injection, schedule: Q04DX002 (ip), vehicle: saline with Tween-80 93 % of control | endpoint: mean survival time, dose: 25.0 mg/kg/injection, schedule: Q04DX002 (ip), vehicle: saline with Tween-80 112 % of control

COC1(OC)CCC2(C)C(CCCC2OS(=O)(=O)c2ccc(C)cc2)C1 (stereo not given)
inactive: endpoint: mean survival time, dose: 100.0 mg/kg/injection, schedule: Q01DX001 (ip), vehicle: carboxymethylcellulose (CMC) 97 % of control | endpoint: mean survival time, dose: 200.0 mg/kg/injection, schedule: Q01DX001 (ip), vehicle: carboxymethylcellulose (CMC) 108 % of control | endpoint: mean survival time, dose: 400.0 mg/kg/injection, schedule: Q01DX001 (ip), vehicle: carboxymethylcellulose (CMC) 97 % of control

CCSC1C(OC(C)=O)C(C(CSC(C)=O)OC(C)=O)OC1n1cc(C)c(=O)[nH]c1=O (stereo not given)
inactive: endpoint: mean survival time, dose: 100.0 mg/kg/injection, schedule: Q01DX005 (ip), vehicle: saline 94 % of control | endpoint: mean survival time, dose: 200.0 mg/kg/injection, schedule: Q01DX005 (ip), vehicle: saline 98 % of control

OC(CCCCC(O)(c1ccccc1)c1ccccc1)(c1ccccc1)c1ccccc1
inactive: [8] 89 % of control | [5] 94 % of control | [9] 96 % of control

NC(N)=Nc1ccc(C(=O)O)cc1
inactive: [6] 107 % of control | [7] 103 % of control

Nc1nc(N)c2nnn(C3CC(O)C(CO)C3)c2n1 (stereo not given)
inactive: endpoint: mean survival time, dose: 50.0 mg/kg/injection, schedule: Q01DX009 (ip), vehicle: saline with Tween-80 89 % of control | [6] 96 % of control | [7] 92 % of control

CC(=O)OI(OC(C)=O)c1ccccc1
inactive: [13] 98 % of control | [15] 102 % of control

CCOC(=O)c1nc[nH]c1C
inactive: [13] 103 % of control | [10] 98 % of control and 101 % of control | [14] 103 % of control | [15] 100 % of control and 120 % of control | [11] 100 % of control and 103 % of control | [16] 103 % of control | [17] 103 % of control and 119 % of control | [12] 103 % of control | [18] 98 % of control

CC1(C)S[C@@H]2[C@H](NC(=O)Cc3ccc([N+](=O)[O-])cc3)CN2[C@H]1N=C=O
inactive: [2] 93 % of control | [3] 91 % of control | [4] 98 % of control

Cc1cc(Br)c(C)cc1Br
inactive: [1] 100 % of control | [2] 100 % of control | [13] 98 % of control | [14] 100 % of control | [3] 103 % of control | [15] 93 % of control | [16] 98 % of control | [4] 103 % of control | [17] 90 % of control | [18] 100 % of control

CCOP(=S)(OCC)SCc1ccccc1
inactive: [8] 97 % of control | [5] 98 % of control | [9] 106 % of control

COc1cc(CCNC(=O)Cc2ccc(OCc3ccccc3)cc2)ccc1OCc1ccccc1
inactive: endpoint: mean survival time, dose: 50.0 mg/kg/injection, schedule: Q01DX009 (ip), vehicle: Klucel (hydroxypropylcellulose) (HPC) 91 % of control | [13] 89 % of control | endpoint: mean survival time, dose: 100.0 mg/kg/injection, schedule: Q04DX003 (ip), vehicle: other 111 % of control | [15] 89 % of control | endpoint: mean survival time, dose: 200.0 mg/kg/injection, schedule: Q04DX003 (ip), vehicle: other 105 % of control | endpoint: mean survival time, dose: 400.0 mg/kg/injection, schedule: Q04DX003 (ip), vehicle: other 94 % of control

COC(=O)/C(C)=N\N=C(N)N
inactive: endpoint: mean survival time, dose: 15.0 mg/kg/injection, schedule: Q01DX Z (ip), vehicle: carboxymethylcellulose (CMC) 104 % of control | endpoint: mean survival time, dose: 30.0 mg/kg/injection, schedule: Q01DX Z (ip), vehicle: carboxymethylcellulose (CMC) 92 % of control | endpoint: mean survival time, dose: 60.0 mg/kg/injection, schedule: Q01DX Z (ip), vehicle: carboxymethylcellulose (CMC) 103 % of control | endpoint: mean survival time, dose: 120.0 mg/kg/injection, schedule: Q01DX Z (ip), vehicle: carboxymethylcellulose (CMC) 97 % of control | endpoint: mean survival time, dose: 240.0 mg/kg/injection, schedule: Q01DX Z (oral), vehicle: carboxymethylcellulose (CMC) 100 % of control | endpoint: mean survival time, dose: 480.0 mg/kg/injection, schedule: Q01DX Z (oral), vehicle: carboxymethylcellulose (CMC) 96 % of control | endpoint: mean survival time, dose: 960.0 mg/kg/injection, schedule: Q01DX Z (oral), vehicle: carboxymethylcellulose (CMC) 100 % of control | endpoint: mean survival time, dose: 1920.0 mg/kg/injection, schedule: Q01DX Z (oral), vehicle: carboxymethylcellulose (CMC) 98 % of control
